Assay results taken from patent US9187465B2, “Oxazole tyrosine kinase inhibitors” (Sareum Limited, priority 2007, dated 2015).

How the values were obtained:
human FLT4 = target: T1, human FLT4 (Homo sapiens, UniProt P35916); test: FLT4 kinase assay (DELFIA enzyme inhibition); format: biochemical; conditions: read-out: FLT4 IC50
T1 construct: a construct expressing the human FLT4 (789-1207) with an amino terminal GST tag; host or cells: Sf9 insect cells (baculovirus)
Protocol: A GST-kinase fusion protein of 70 KDa was produced using sf9 baculovirus expression system, with a construct expressing the human FLT4 (789-1207) with an amino terminal GST tag. The protein was purified by affinity chromatography using glutathione-agarose followed by separation on a gel filtration column.
FLT4 enzyme activity is determined using a Dissociation Enhanced Lanthanide Fluorescent Immunoassay (DELFIA) with a peptide substrate derived from the MET (Tyr 1253) peptide […] with a core sequence […].
The amount of phosphorylated peptide produced is detected by means of a phospho-Tyrosine specific Europium-labelled antibody using Time-Resolved Fluorescence at Excitation 360-35 nm and Emission 620-35 nm.
Assay reactions are set up in a 25 uL final volume on a 96 well plate. […] The reaction is allowed to proceed for 30 minutes at room temperature before stopping with 100 uL Stop solution comprising of 100 mM EDTA, 1×BSA blocker in TBS (Perbio) and 0.05% Surfact-Amps20 (Perbio).
The stopped reaction is transferred to a black 96-well Neutravidin-coated plate (Perbio) and incubated for 30 minutes to capture the biotinylated peptide substrate. After washing wells 3 times with 200 uL TBS/T buffer, Anti-Phospho-Tyr-100 antibody labelled with Eu—N1 (Perkin Elmer AD0159) is added to all wells for 60 minutes at room temperature. After a repeat washing step, DELFIA Enhancement solution (Perkin Elmer) is added to all wells for 5 minutes and the fluorescence measured on a plate reader Analyst HT (Molecular Devices).
The % inhibition of the activity is calculated and plotted in order to determine the concentration of test compound required to inhibit 50% of the enzyme activity (IC50).

human Aurora A = target: T2, human Aurora A (Homo sapiens, UniProt O14965); test: Aurora A kinase assay (DELFIA enzyme inhibition); format: biochemical; conditions: read-out: Aurora A IC50
T2 construct: Histidine tag (N); host or cells: Sf9 insect cells (baculovirus)
T2 sequence (O14965 1-403): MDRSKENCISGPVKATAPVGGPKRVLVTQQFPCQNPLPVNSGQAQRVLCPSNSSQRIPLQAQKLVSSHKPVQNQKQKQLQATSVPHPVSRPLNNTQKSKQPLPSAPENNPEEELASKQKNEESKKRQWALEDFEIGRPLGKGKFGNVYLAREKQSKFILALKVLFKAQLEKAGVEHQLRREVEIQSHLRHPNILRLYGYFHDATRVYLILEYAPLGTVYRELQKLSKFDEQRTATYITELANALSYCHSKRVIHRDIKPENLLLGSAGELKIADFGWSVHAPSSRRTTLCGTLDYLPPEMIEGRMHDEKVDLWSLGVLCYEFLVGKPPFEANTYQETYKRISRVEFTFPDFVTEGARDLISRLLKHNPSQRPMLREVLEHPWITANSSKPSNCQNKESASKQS
Protocol: The protein was purified by one-step affinity chromatography using nickel-agarose […]
Assay reactions are set up in a 25 uL final volume on a 96 well plate. […] The reaction is allowed to proceed for 30 minutes at room temperature before stopping with 100 μL Stop solution comprising of 100 mM EDTA, 1×BSA blocker in TBS (Perbio) and 0.05% Surfact-Amps20 (Perbio).
The stopped reaction is transferred to a black 96-well Neutravidin-coated plate (Perbio) and incubated for 30 minutes to capture the biotinylated peptide substrate. […] After repeating the washing step, the plate is further incubated for one hour with Europium-labelled anti-rabbit antibody (Perkin Elmer AD0105). The wash step is repeated for a final time before DELFIA Enhancement solution (Perkin Elmer) is added to all wells for 5 minutes and the fluorescence measured on a plate reader Analyst HT (Molecular Devices).

T1 sequence (P35916 789-1207): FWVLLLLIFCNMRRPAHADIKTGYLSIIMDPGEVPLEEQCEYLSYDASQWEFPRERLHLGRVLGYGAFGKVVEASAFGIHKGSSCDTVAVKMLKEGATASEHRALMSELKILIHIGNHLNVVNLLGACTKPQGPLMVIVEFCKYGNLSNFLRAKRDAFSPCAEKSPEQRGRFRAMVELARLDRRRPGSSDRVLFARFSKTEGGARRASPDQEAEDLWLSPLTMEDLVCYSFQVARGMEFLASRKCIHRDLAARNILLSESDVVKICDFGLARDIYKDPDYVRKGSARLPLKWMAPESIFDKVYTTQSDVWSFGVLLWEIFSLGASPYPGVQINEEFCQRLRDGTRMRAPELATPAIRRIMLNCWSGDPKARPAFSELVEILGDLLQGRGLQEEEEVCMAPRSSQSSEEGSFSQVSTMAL

| IC50 (human FLT4) [µM] | IC50 (human Aurora A) [µM] | SMILES |
| --- | --- | --- |
| < 100 | < 100 | NC(=O)c1[nH]c(-c2c(F)cccc2F)nc1-c1ccccn1 [Example C-1, 2-(2,6-difluorophenyl)-4-(pyridin-2-yl)-1H-imidazole-5-carboxamide] |
| < 10 | < 100 | COc1ccc(-c2oc(-c3c(F)cccc3F)nc2C(N)=O)cc1 [Example E-2, 2-(2,6-difluorophenyl)-5-(4-methoxyphenyl)oxazole-4-carboxamide] |
| < 10 | < 100 | CN(C)c1ccc(-c2oc(-c3c(F)cccc3F)nc2C(N)=O)cc1 [Example F-3, 2-(2,6-difluorophenyl)-5-(4-(dimethylamino)phenyl)oxazole-4-carboxamide] |
| < 10 | < 100 | NC(=O)c1nc(-c2c(F)cccc2F)oc1-c1ccsc1 [Example F-5, 2-(2,6-difluorophenyl)-5-(thiophen-3-yl)oxazole-4-carboxamide] |
| < 10 | < 10 | NC(=O)c1nc(-c2c(F)cccc2F)oc1-c1ccncc1 [Example F-8, 2-(2,6-difluorophenyl)-5-(pyridin-4-yl)oxazole-4-carboxamide] |
|  | < 100 | NC(=O)c1nc(-c2c(F)cccc2F)oc1-c1cccc2ccccc12 [Example F-35, 2-(2,6-difluorophenyl)-5-(naphthalen-1-yl)oxazole-4-carboxamide] |
|  | < 100 | NC(=O)c1nc(-c2c(F)cccc2F)oc1-c1cccc2[nH]ccc12 [Example F-36, 2-(2,6-difluorophenyl)-5-(1H-indol-4-yl)oxazole-4-carboxamide] |
|  | < 100 | NC(=O)c1nc(-c2c(F)cccc2F)oc1-c1cccc2cccnc12 [Example F-37, 2-(2,6-difluorophenyl)-5-(quinolin-8-yl)oxazole-4-carboxamide] |
|  | < 100 | COc1ccc(-c2oc(-c3ccccc3C(N)=O)nc2C(N)=O)cc1 [Example M-6, 2-(2-carbamoylphenyl)-5-(4-methoxyphenyl)oxazole-4-carboxamide] |
|  | < 100 | COc1ccc(-c2oc(-c3ccc(C(F)(F)F)cc3)nc2C(N)=O)cc1 [Example N-4, 5-(4-methoxyphenyl)-2-(4-(trifluoromethyl)phenyl)oxazole-4-carboxamide] |
|  | < 100 | COc1ccc(-c2oc(-c3ccc(C(F)(F)F)cc3F)nc2C(N)=O)cc1 [Example N-5, 2-(2-fluoro-4-(trifluoromethyl)phenyl)-5-(4-methoxyphenyl)oxazole-4-carboxamide] |
|  | < 100 | COc1ccc(-c2oc(-c3cc(C(F)(F)F)ccc3F)nc2C(N)=O)cc1 [Example N-6, 2-(2-fluoro-5-(trifluoromethyl)phenyl)-5-(4-methoxyphenyl)oxazole-4-carboxamide] |
|  | < 100 | COc1ccc(-c2oc(-c3ccc(C)cc3)nc2C(N)=O)cc1 [Example N-9, 5-(4-methoxyphenyl)-2-p-tolyloxazole-4-carboxamide] |
|  | < 10 | COc1ccc(-c2oc(Nc3c(F)cccc3F)nc2C(N)=O)cc1 [Example R-9, 2-(2,6-difluorophenylamino)-5-(4-methoxyphenyl)oxazole-4-carboxamide] |

Second part, the compound before the results:

| SMILES | IC50 (human FLT4) [µM] | IC50 (human Aurora A) [µM] |
| --- | --- | --- |
| COc1ccc(-c2nc(-c3ccccc3Cl)[nH]c2C(N)=O)cc1 [Example A-2, 2-(2-chlorophenyl)-4-(4-methoxyphenyl)-1H-imidazole-5-carboxamide] | < 100 | < 100 |
| COc1ccc(-c2nc(-c3ccccc3OC)[nH]c2C(N)=O)cc1 [Example A-3, 2-(2-methoxyphenyl)-4-(4-methoxyphenyl)-1H-imidazole-5-carboxamide] | < 100 | < 100 |
| COc1ccc(-c2nc(-c3cccc(OC)c3)[nH]c2C(N)=O)cc1 [Example A-4, 2-(3-methoxyphenyl)-4-(4-methoxyphenyl)-1H-imidazole-5-carboxamide] | < 100 | < 100 |
| COc1ccc(-c2nc(-c3ccc(OC)cc3)c(C(N)=O)[nH]2)cc1 [Example A-5, 2,4-bis(4-methoxyphenyl)-1H-imidazole-5-carboxamide] | < 100 | < 100 |
| COc1ccc(-c2nc(-c3ccccc3C)[nH]c2C(N)=O)cc1 [Example A-6, 4-(4-methoxyphenyl)-2-o-tolyl-1H-imidazole-5-carboxamideHH] | < 100 | < 100 |
| COc1ccc(-c2nc(-c3cccc(C)c3)[nH]c2C(N)=O)cc1 [Example A-7, 4-(4-methoxyphenyl)-2-m-tolyl-1H-imidazole-5-carboxamide] | < 100 | < 100 |
| COc1ccc(-c2nc(-c3ccc(C)cc3)[nH]c2C(N)=O)cc1 [Example A-8, 4-(4-methoxyphenyl)-2-p-tolyl-1H-imidazole-5-carboxamide] | < 100 | < 100 |
| COc1ccc(-c2nc(-c3c(Cl)cccc3Cl)[nH]c2C(N)=O)cc1 [Example A-10, 2-(2,6-dichlorophenyl)-4-(4-methoxyphenyl)-1H-imidazole-5-carboxamide] | < 100 | < 100 |
| COc1ccc(-c2nc(-c3ccccc3F)[nH]c2C(N)=O)cc1 [Example A-11, 2-(2-fluorophenyl)-4-(4-methoxyphenyl)-1H-imidazole-5-carboxamide] | < 100 | < 100 |
| COc1ccc(-c2nc(-c3cccnc3)[nH]c2C(N)=O)cc1 [Example A-12, 4-(4-methoxyphenyl)-2-(pyridin-3-yl)-1H-imidazole-5-carboxamide] | < 100 | < 100 |
| COc1ccc(-c2nc(-c3c[nH]c4ccccc34)[nH]c2C(N)=O)cc1 [Example A-13, 2-(1H-indol-3-yl)-4-(4-methoxyphenyl)-1H-imidazole-5-carboxamide] | < 10 | < 100 |
| COc1ccc(-c2nc(-c3c(F)cc(Br)cc3F)[nH]c2C(N)=O)cc1 [Example A-14, 2-(4-bromo-2,6-difluorophenyl)-4-(4-methoxyphenyl)-1H-imidazole-5-carboxamide] | < 100 | < 100 |
| COc1ccc(-c2nc(-c3c(F)cccc3Cl)[nH]c2C(N)=O)cc1 [Example A-15, 2-(2-chloro-6-fluorophenyl)-4-(4-methoxyphenyl)-1H-imidazole-5-carboxamide] | < 100 | < 100 |
| NC(=O)c1[nH]c(-c2c(F)cccc2F)nc1-c1cccs1 [Example A-16, 2-(2,6-difluorophenyl)-4-(thiophen-2-yl)-1H-imidazole-5-carboxamide] | < 10 | < 100 |
| NC(=O)c1[nH]c(-c2c(F)cccc2F)nc1-c1ccccc1F [Example A-18, 2-(2,6-difluorophenyl)-4-(2-fluorophenyl)-1H-imidazole-5-carboxamide] |  | < 10 |
| COc1ccc(-c2nc(-c3ccncc3)[nH]c2C(N)=O)cc1 [Example B-1, 4-(4-methoxyphenyl)-2-(pyridin-4-yl)-1H-imidazole-5-carboxamide] | < 100 | < 100 |
| COc1ccc(-c2nc(-c3csc4ccccc34)[nH]c2C(N)=O)cc1 [Example B-3, 2-(benzo[b]thiophen-3-yl)-4-(4-methoxyphenyl)-1H-imidazole-5-carboxamide] | < 100 | < 100 |
| COc1ccc(-c2nc(-c3cn(C)c4ccccc34)[nH]c2C(N)=O)cc1 [Example B-4, 4-(4-methoxyphenyl)-2-(1-methyl-1H-indol-3-yl)-1H-imidazole-5-carboxamide] | < 100 | < 100 |
| COc1ccc(-c2nc(-c3c(F)cccc3F)[nH]c2C(N)=O)cc1 [Example B-5, 2-(2,6-difluorophenyl)-4-(4-methoxyphenyl)-1H-imidazole-5-carboxamide] | < 100 | < 100 |
